Measured values taken from article PMC10573892, “β-Lactam TRPM8 Antagonists Derived from Phe-Phenylalaninol Conjugates: Structure–Activity Relationships and Antiallodynic Activity” (International Journal of Molecular Sciences, 2023).

Columns and labels:
hTRPM8 = molecular target: T1, hTRPM8 (Homo sapiens, UniProt Q7Z2W7); test: Ca2+ microfluorimetry in HEK293 cells expressing human TRPM8; format: cell-based; conditions: activation by 100 µM menthol; read-out: Ca^2+ Microfluorimetry Assays hTRPM8 IC50
T1 construct: expressed in transfected cells; host or cells: HEK293
Protocol: To further characterize this family of compounds, calcium microfluorimetry assays were conducted using the HEK293 cell line, which expresses the human isoform of the TRPM8 channel. Amide derivatives 34 and 35 were selected, and their outcomes were compared with those of the model compound 1 (Table 4). […] This behavior is not particular of these β-lactams, but it is similar to those observed for other TRPM8 antagonists.
(§1) Calcium fluorometry, Patch-Clamp assays and in vivo experiments were performed using the methodology previously described for TRPM8 [35] or TRPM3 [61]. In the Patch -Clamp experiments, the intracellular pipette solution contained (in mM) 140 KCl, 5 EGTA, and 10 mM HEPES, adjusted to pH 7.2 with KOH, and the extracellular solution contained (in mM) 140 NaCl, 2 CaCl2, 1 MgCl2, 10 D-glucose and 10 HEPES, adjusted to pH 7.4 with NaOH. Selectivity against TRPV1, TRPV3, TRPA1 and ASIC3 was subcontracted to Eurofins-CEREP or Eurofins-PANLABS (see ref. [35] for more details).

rTRPM8 = molecular target: T2, rTRPM8 (Rattus norvegicus, UniProt Q8R455); test: Patch-Clamp electrophysiology on single HEK293 cells expressing rat TRPM8; format: cell-based; conditions: activation by 100 µM menthol; holding voltage −60 mV
T2 construct: expressed in transfected cells
Description: A recent research study using Patch-Clamp, among other techniques, established that menthol occupies a cavity within the TRPM8 S1–S4 transmembrane helix, with the OH group forming an H-bond with the δ-NH of R842 residue, and Van der Waals interactions among the methyl groups of the ^iPr moiety and residues I846 and L843 [41].
This is evident by a negligible current at negative potentials and a linear intensification of the ohmic current at positive voltages. When applying compound 34 at a concentration of […], a noticeable reduction in menthol-induced activity at depolarizing voltages was observed (indicated by the red line) compared to menthol alone. Dose–response relationships for both tested compounds were established through triplicate experiments at various concentrations, applying a holding voltage of −60 mV (as shown in Figure 2B).
as §1
Figure 2 Compound 34 blocks TRPM8-mediated responses evoked by menthol in rTRPM8-expressing HEK293 cells. (A) IV curves obtained after exposure to vehicle solution (green trace), 100 µM menthol (blue trace) and 100 µM menthol + 10 µM 34 (red trace). Peak current data were expressed as pA/pF (to allow comparison among different size cells). Each point is the mean ± SEM of n = 15. (B) Concentration/response curves for rTRPM8 current blockade by 34 at a holding voltage of −60 mV. […]

hTRPV1 = molecular target: T3, hTRPV1 (Homo sapiens, UniProt Q8NER1); test: TRPV1 channel Ca2+ microfluorimetry (capsaicin 30 nM); format: cell-based
T3 construct: Eurofins-CEREP or Eurofins-PANLABS (contract assay)
Description: (§2) The effects of compound 34 have been evaluated on different ion channels and receptors implicated in pain-related processes to assess the selectivity for TRPM8 channels. First, some TRP channels that play a role in temperature integration and nociception were selected, including hTRPV1, hTRPV3, hTRPA1 and TRPM3. Additionally, the evaluation encompassed the hASIC3 channel with widespread distribution within the peripheral nervous system and contributions to the excitability of primary sensory neurons. In each instance, the compound was subjected to evaluation at a consistent concentration of 10 µM.
as §1

hTRPA1 = molecular target: T4, hTRPA1 (Homo sapiens, UniProt O75762); test: TRPA1 channel Ca2+ microfluorimetry (allylisothiocyanate 10 μM); format: cell-based; conditions: agonist allylisothiocyanate 10 μM
T4 construct: Eurofins-CEREP or Eurofins-PANLABS (contract assay)
Description: as §2, §1

hTRPM3 = hTRPM3 (Homo sapiens, UniProt Q9HCF6); test: TRPM3 channel Ca2+ microfluorimetry (pregnenolone sulfate 50 µM); format: cell-based; conditions: 10 μM; agonist pregnenolone sulfate 50 µM; read-out: % Channel Inhibition at 10 μM hTRPM3
Protocol: as §2, with “First,” for “The effects of compound 34 have been evaluated on different ion channels and receptors implicated in pain-related processes to assess the selectivity for TRPM8 channels. First,”
as §1

hASIC3 channel = molecular target: T5, hASIC3 channel (Homo sapiens, UniProt Q9UHC3); test: ASIC3 channel functional assay (buffer pH 5.5); format: cell-based
T5 construct: Eurofins-CEREP or Eurofins-PANLABS (contract assay)
T5 sequence (Q9UHC3 1-531): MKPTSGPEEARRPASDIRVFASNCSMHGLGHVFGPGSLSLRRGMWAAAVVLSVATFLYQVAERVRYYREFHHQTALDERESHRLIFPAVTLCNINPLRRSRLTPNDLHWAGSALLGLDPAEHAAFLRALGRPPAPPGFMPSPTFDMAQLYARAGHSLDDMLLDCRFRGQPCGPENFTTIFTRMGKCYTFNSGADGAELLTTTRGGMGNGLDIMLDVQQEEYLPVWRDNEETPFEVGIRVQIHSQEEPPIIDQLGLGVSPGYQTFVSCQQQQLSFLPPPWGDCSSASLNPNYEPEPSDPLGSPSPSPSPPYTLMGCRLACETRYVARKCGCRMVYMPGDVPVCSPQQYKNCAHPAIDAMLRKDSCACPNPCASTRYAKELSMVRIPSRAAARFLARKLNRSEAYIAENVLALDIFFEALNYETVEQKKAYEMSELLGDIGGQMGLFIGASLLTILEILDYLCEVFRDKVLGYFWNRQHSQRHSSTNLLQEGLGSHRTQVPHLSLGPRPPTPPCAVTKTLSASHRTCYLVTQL
Description: as §2, §1

hCGRPR = hCGRPR (Homo sapiens, UniProt O60894+Q16602); test: Radioligand binding at CGRP receptor; conditions: radioligand [125]hGCRPα
Description: (§3) Furthermore, the investigation extended to measuring the binding affinity of compound 34 to calcitonin gene-related peptide hCGRPR, cannabinoid hCB2 and muscarinic hM3 receptors, which are all relevant to different pain conditions.

hCB2 = hCB2 (Homo sapiens, UniProt P34972); test: Radioligand binding at cannabinoid CB2 receptor; conditions: radioligand [3H]WIN 55212-2
Description: as §3

T3 sequence (Q8NER1 whole entry): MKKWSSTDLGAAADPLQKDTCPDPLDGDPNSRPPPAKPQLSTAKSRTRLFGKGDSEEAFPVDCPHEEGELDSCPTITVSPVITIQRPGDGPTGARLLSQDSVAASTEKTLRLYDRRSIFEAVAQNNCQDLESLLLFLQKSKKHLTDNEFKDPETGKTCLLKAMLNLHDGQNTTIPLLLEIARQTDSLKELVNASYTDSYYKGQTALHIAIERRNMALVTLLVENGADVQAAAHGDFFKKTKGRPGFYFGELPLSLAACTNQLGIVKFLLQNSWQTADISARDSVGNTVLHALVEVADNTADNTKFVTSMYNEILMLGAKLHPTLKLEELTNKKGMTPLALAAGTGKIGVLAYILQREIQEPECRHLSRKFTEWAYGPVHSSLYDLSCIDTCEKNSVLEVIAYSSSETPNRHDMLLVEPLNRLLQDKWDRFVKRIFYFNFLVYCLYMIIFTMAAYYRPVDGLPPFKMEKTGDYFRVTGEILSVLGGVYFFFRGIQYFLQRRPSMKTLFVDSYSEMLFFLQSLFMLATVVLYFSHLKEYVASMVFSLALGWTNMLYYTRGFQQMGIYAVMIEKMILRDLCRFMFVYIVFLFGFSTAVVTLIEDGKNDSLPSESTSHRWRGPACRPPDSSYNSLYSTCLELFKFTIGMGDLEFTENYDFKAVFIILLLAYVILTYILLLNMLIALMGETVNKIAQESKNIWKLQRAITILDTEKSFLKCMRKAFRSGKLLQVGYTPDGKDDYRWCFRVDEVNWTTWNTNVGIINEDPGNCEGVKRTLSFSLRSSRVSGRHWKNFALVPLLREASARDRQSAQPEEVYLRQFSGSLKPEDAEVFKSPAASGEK
Sequence of hCGRPR (Q16602 23-461): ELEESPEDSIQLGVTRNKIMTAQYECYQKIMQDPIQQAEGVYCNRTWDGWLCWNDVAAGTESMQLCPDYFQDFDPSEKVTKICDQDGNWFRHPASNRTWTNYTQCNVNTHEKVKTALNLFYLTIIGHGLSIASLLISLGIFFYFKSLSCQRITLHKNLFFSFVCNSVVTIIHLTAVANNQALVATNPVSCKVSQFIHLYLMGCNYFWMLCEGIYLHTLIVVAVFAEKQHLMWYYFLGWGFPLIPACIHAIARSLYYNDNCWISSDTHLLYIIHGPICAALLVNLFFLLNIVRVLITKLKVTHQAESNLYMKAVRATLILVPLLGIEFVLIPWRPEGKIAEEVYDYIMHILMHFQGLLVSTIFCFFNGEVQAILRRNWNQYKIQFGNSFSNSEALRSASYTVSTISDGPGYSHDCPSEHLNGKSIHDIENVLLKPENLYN
Sequence of hCGRPR (O60894 27-148): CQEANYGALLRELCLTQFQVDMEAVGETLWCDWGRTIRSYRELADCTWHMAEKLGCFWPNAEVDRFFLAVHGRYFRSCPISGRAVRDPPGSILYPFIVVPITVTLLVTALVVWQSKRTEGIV
T2 sequence (Q8R455 whole entry): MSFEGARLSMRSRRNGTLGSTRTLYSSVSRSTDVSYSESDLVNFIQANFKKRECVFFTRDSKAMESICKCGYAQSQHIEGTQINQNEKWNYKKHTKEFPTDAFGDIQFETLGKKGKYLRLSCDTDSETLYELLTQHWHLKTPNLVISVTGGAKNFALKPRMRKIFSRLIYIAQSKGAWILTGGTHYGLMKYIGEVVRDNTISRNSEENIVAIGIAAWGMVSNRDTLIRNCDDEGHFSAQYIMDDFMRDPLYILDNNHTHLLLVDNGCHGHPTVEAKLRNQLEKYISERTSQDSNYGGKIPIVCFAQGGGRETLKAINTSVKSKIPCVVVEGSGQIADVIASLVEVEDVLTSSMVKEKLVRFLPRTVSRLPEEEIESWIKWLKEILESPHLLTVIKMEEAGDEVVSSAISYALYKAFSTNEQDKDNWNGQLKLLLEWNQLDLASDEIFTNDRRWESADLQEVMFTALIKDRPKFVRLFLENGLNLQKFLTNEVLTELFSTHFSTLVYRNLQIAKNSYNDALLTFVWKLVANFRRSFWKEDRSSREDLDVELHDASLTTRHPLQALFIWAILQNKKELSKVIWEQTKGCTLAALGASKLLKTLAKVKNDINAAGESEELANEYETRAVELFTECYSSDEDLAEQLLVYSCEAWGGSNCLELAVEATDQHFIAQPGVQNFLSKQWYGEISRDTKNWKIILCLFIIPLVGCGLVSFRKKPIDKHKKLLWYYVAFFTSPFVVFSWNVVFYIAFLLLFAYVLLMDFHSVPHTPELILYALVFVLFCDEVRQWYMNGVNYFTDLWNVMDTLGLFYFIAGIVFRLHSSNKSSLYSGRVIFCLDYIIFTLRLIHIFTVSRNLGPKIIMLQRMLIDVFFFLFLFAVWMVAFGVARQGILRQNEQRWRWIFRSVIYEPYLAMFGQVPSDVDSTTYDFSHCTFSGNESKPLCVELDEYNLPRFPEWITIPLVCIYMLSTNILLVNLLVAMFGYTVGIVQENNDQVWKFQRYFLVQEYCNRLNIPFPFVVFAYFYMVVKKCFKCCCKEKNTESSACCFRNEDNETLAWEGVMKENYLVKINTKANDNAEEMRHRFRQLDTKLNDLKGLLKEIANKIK
T4 sequence (O75762 whole entry): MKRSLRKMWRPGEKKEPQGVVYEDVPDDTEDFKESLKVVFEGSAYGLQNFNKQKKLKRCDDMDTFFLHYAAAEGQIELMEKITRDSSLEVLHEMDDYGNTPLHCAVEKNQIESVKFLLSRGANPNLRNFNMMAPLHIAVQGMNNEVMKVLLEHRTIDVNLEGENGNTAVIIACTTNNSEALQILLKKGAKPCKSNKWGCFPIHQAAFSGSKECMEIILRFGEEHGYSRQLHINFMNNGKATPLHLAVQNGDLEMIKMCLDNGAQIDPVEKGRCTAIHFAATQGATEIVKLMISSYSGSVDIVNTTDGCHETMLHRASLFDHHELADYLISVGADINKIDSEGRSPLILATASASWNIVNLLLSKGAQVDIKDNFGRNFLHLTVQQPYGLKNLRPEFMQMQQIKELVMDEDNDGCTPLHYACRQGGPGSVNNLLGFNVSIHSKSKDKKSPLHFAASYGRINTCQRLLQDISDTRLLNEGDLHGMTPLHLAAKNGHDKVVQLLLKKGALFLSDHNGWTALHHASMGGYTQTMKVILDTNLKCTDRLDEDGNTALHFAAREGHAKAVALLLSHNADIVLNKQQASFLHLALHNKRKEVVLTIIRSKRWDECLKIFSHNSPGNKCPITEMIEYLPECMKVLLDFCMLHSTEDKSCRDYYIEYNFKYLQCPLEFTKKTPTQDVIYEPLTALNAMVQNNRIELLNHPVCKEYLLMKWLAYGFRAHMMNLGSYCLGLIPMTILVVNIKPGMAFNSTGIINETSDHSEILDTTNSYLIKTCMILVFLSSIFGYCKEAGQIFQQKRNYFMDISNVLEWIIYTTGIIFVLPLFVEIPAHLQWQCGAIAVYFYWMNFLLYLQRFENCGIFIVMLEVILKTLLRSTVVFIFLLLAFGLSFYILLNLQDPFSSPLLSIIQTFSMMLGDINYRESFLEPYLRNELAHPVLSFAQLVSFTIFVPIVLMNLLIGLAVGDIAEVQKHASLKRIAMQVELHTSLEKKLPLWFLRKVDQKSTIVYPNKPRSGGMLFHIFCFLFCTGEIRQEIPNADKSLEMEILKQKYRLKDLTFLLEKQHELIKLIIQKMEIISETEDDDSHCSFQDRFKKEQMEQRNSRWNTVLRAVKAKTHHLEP
T1 sequence (Q7Z2W7 whole entry): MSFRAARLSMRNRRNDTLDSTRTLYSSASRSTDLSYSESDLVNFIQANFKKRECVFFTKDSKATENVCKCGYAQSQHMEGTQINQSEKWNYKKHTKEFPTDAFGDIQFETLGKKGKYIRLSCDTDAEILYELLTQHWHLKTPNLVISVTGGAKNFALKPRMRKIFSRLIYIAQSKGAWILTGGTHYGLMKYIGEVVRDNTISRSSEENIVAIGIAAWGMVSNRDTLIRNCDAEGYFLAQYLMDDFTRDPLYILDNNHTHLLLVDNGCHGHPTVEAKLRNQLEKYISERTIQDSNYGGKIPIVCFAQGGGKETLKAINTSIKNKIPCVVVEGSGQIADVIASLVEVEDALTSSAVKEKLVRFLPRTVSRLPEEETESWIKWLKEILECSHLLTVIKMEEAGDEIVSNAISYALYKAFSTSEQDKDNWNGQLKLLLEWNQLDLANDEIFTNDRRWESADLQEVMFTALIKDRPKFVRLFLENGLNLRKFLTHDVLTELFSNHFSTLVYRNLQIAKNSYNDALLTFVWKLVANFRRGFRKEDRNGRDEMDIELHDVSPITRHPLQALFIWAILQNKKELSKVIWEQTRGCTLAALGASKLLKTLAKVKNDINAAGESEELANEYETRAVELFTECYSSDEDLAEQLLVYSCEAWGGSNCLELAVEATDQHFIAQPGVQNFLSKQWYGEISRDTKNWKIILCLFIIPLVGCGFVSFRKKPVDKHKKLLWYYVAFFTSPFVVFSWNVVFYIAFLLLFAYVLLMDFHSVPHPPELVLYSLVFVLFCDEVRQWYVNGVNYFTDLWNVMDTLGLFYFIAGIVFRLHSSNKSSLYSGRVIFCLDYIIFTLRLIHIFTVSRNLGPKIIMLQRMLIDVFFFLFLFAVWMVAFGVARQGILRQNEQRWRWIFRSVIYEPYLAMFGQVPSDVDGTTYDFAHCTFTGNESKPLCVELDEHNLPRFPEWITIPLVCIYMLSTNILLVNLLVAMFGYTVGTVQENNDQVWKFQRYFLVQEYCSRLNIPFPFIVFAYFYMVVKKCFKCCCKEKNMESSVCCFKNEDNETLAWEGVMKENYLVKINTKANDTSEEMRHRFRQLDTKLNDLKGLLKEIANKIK

Structure (SMILES): CC(C)CNC(=O)[C@]1(Cc2ccccc2)[C@H](C)C(=O)N1C[C@H](Cc1ccccc1)N(Cc1ccccc1)Cc1ccccc1 [Compound 34, 4S-Benzyl-4-[N-(iso-butyl)-carbamoyl]-3S-methyl-1-[(2′S-dibenzylamino-3′-phenyl)prop-1′-yl]-2-oxoazetidine]
- IC50 (hTRPM8): 2580 ± 1240 nM
- IC50 (rTRPM8): 160 nM
- activation on the TRPV1 channel (hTRPV1; 10 µM): did not show activation
- inhibition at 10 µM (hTRPV1; 10 μM, agonist capsaicin 30 nM): 8.9 ± 2.9%
- inhibition at 10 µM (hTRPA1): 2 ± 3.4%
- inhibition at 10 µM (hTRPM3): 6.9 ± 10.7%
- inhibition at 10 µM (hASIC3 channel): 2.2 ± 9.6%
- inhibition at 10 µM (hCGRPR): -11.9 ± 5.2%
- inhibition at 10 µM (hCB2): 7 ± 2.1%
